Laboratory results as given in ChEMBL document CHEMBL4840341, “Voatriafricanines A and B, Trimeric Vobasine-Aspidosperma-Aspidosperma Alkaloids from Voacanga africana” (J Nat Prod, 2021).
≈ marks a conversion by molar mass, not a printed value.

Columns and labels:
Type in all cases: functional
[1] = Antimycobacterial activity against Mycobacterium abscessus subsp. bolletii assessed as inhibition of mycobacterial growth incubated for 2 to 3 days by broth microdilution method; conditions: Mycobacteroides abscessus; time 2-3 day
[2] = tested on: Mycolicibacterium smegmatis; test: Antimycobacterial activity against Mycobacterium smegmatis CIP7326 assessed as inhibition of mycobacterial growth incubated for 24 hrs by broth microdilution method
[3] = tested on: Pseudomonas aeruginosa; test: Antibacterial activity against Pseudomonas aeruginosa ATCC 15442 assessed as inhibition of bacterial growth incubated for 24 hrs by broth microdilution method

Compound | MIC [1] [µg/mL] | MIC [2] [µg/mL] | MIC [3] [µg/mL]
CO[C@H]1/C=C/O[C@@]2(C)Oc3c(C)c(O)c4c(O)c(c(/C=N/N5CCN(C)CC5)c(O)c4c3C2=O)NC(=O)/C(C)=C\C=C\[C@H](C)[C@H](O)[C@@H](C)[C@@H](O)[C@@H](C)[C@H](OC(C)=O)[C@@H]1C [RIFAMPIN] | 0.1 (≈ 0.122 µM) | 0.1 (≈ 0.122 µM) | –
cetrimide | – | – | 0.1
